Data on 23 compounds can be found in patent US20090221642A1, “MUSCARINIC RECEPTOR AGONISTS, COMPOSITIONS, METHODS OF TREATMENT THEREOF, AND PROCESSES FOR PREPARATION THEREOF-176” (AstraZeneca AB, priority 2008, published 2009).

A value given as a limit tells only on which side of the number the result lay.

The target of this test is T1, cloned human M4 receptor (human Muscarinic receptor subtype 4) (Homo sapiens, UniProt P08173).
T1 construct: purchased Perkin-Elmer RBHM4M; host or cells: Chinese hamster ovary cells (CHO) membranes
T1 sequence (P08173 1-479): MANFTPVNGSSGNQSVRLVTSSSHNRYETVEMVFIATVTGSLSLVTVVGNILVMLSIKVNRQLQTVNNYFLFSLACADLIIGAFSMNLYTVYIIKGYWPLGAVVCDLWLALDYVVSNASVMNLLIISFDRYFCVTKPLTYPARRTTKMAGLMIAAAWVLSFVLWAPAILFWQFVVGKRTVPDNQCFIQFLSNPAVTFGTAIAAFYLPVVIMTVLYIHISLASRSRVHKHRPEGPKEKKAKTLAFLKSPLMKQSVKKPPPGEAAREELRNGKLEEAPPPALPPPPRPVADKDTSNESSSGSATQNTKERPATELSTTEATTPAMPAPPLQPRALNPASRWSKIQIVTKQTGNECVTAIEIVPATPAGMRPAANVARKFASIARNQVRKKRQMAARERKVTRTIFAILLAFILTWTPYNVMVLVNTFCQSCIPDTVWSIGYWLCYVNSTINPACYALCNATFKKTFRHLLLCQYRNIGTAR
The experiment in a line: hM4 receptor GTPγS binding. In kind it is biochemical. The note with it: CHO cell membranes expressing hM4; [35S]GTPγS binding; read-out: hM4 EC50. Here is the method:
hM4 Receptor GTPγS Binding
Membranes produced from Chinese hamster ovary cells (CHO) expressing the cloned human M4 receptor (human Muscarinic receptor subtype 4, gene bank access NM_000741), are obtained from Perkin-Elmer (RBHM4M). The membranes are thawed at 37° C., passed 3 times through a 23-gauge blunt-end needle, diluted in the GTPγS binding buffer (50 mM Hepes, 20 mM NaOH, 100 mM NaCl, 1 mM EDTA, 5 mM MgCl2, pH 7.4, 100 μM DTT). The EC50, IC50 and Emax of the compounds of the invention are evaluated from 10-point dose-response curves (three fold concentration range) done in 60 μl in 384-well non-specific binding surface plate (Corning). Ten microliters from the dose-response curves plate (5× concentration) are transferred to another 384 well plate containing 25 μl of the following: 10 μg of hM4 membranes, 500 μg of Flashblue beads (Perkin-Elmer) and GDP 40 μM. An additional 15 μl containing 3.3× (60,000 dpm) of GTPγ^35S (0.4 nM final) are added to the wells resulting in a total well volume of 50 μl. Basal and maximal stimulated [^35S]GTPγS binding are determined in absence and presence of 30 μM final of acetylcholine agonist. The membranes/beads mix are pre-incubated for 15 minutes at room temperature with 40 μM GDP prior to distribution in plates (20 μM final). The reversal of acetylcholine-induced stimulation (10 μM final) of [^35S]GTPγS binding is used to assay the antagonist properties (IC50) of the compounds. The plates are incubated for 60 minutes at room temperature then centrifuged at 400 rpm for 5 minutes. The radioactivity (cpm) is counted in a Trilux (Perkin-Elmer).
Values of EC50, IC50 and Emax are obtained using sigmoidal fits of a non-linear curve-fitting program (XLfit version 4.2.2 Excel add-in version 4.2.2 build 18 math 1Q version 2.1.2 build 18) of percent stimulated [^35S]GTPγS binding vs. log(molar ligand). All pEC50 and plC50 values are reported as arithmetic means ±standard error of mean of ‘n’ independent experiments.
On the technique in general: Binding of GTPγS marks nucleotide exchange on a G protein.
One may read the EC50 as the concentration needed to bring the measured effect to its halfway point. Turning to `COC(=O)N1CCC(C)(N2CCC(n3c(=O)[nH]c4ccccc43)CC2)C1` (racemic) [Example 2, methyl 3-methyl-3-(4-(2-oxo-2,3-dihydro-1H-benzo[d]imidazol-1-yl)piperidin-1-yl)pyrrolidine-1-carboxylate], the EC50 turned out to be 2480 nM.
For the compound `CCOC(=O)N1CCC(C)(N2CCC(n3c(=O)[nH]c4cc(F)ccc43)CC2)C1` (single isomer, unassigned) [Example 6, ethyl 3-(4-(5-fluoro-2-oxo-2,3-dihydro-1H-benzo[d]imidazol-1-yl)piperidin-1-yl)-3-methylpyrrolidine-1-carboxylate], the concentration giving a half-maximal response (EC50) worked out at 1730 nM.
As for `CCOC(=O)N1CCC(C)(N2CCC(n3c(=O)[nH]c4cc(C)ccc43)CC2)C1` (single isomer, unassigned) [Example 12, ethyl 3-methyl-3-(4-(5-methyl-2-oxo-2,3-dihydro-1H-benzo[d]imidazol-1-yl)piperidin-1-yl)pyrrolidine-1-carboxylate], the figure is 2000 nM; as for `Cc1ccc2c(c1)[nH]c(=O)n2C1CCN(C2(C)CCN(C(=O)OC(C)C)C2)CC1` (single isomer, unassigned) [Example 14, isopropyl 3-methyl-3-(4-(5-methyl-2-oxo-2,3-dihydro-1H-benzo[d]imidazol-1-yl)piperidin-1-yl)pyrrolidine-1-carboxylate], above 90000 nM.
In the case of `CC#CCOC(=O)N1CCC(C)(N2CCC(n3c(=O)[nH]c4cc(C)ccc43)CC2)C1` (single isomer, unassigned) [Example 21, but-2-ynyl 3-methyl-3-(4-(5-methyl-2-oxo-2,3-dihydro-1H-benzo[d]imidazol-1-yl)piperidin-1-yl)pyrrolidine-1-carboxylate] it was 262 nM; in that of `CC#CCOC(=O)N1CCC(C)(N2CCC(n3c(=O)[nH]c4cc(F)ccc43)CC2)C1` (single isomer, unassigned) [Example 22, but-2-ynyl 3-(4-(5-fluoro-2-oxo-2,3-dihydro-1H-benzo[d]imidazol-1-yl)piperidin-1-yl)-3-methylpyrrolidine-1-carboxylate], 421 nM; in that of `COC(=O)N1CCC(C)(N2CCC(n3c(=O)[nH]c4cc(F)ccc43)CC2)C1` (single isomer, unassigned) [Example 23, methyl 3-(4-(5-fluoro-2-oxo-2,3-dihydro-1H-benzo[d]imidazol-1-yl)piperidin-1-yl)-3-methylpyrrolidine-1-carboxylate], 3870 nM.
As for `C#CCOC(=O)N1CCC(C)(N2CCC(n3c(=O)[nH]c4cc(F)ccc43)CC2)C1` (single isomer, unassigned) [Example 25, prop-2-ynyl 3-(4-(5-fluoro-2-oxo-2,3-dihydro-1H-benzo[d]imidazol-1-yl)piperidin-1-yl)-3-methylpyrrolidine-1-carboxylate], the figure is 684 nM.
Regarding `Cc1ccc2[nH]c(=O)n(C3CCN(C4(C)CCN(C(=O)OCCF)C4)CC3)c2c1` (single isomer, unassigned) [Example 26, 2-fluoroethyl 3-methyl-3-(4-(6-methyl-2-oxo-2,3-dihydro-1H-benzo[d]imidazol-1-yl)piperidin-1-yl)pyrrolidine-1-carboxylate], the 50% effective concentration (EC50) was determined as 857 nM.
In the case of `Cc1ccc2c(c1)[nH]c(=O)n2C1CCN(C2(C)CCN(C(=O)OCCF)C2)CC1` (single isomer, unassigned) [Example 27, 2-fluoroethyl 3-methyl-3-(4-(5-methyl-2-oxo-2,3-dihydro-1H-benzo[d]imidazol-1-yl)piperidin-1-yl)pyrrolidine-1-carboxylate] it was 3090 nM; in that of `CC1(N2CCC(n3c(=O)[nH]c4ccccc43)CC2)CCN(C(=O)OCCF)C1` (single isomer, unassigned) [Example 31, 2-fluoroethyl 3-methyl-3-(4-(2-oxo-2,3-dihydro-1H-benzo[d]imidazol-1-yl)piperidin-1-yl)pyrrolidine-1-carboxylate], 1190 nM; in that of `CC1(N2CCC(n3c(=O)[nH]c4ccccc43)CC2)CCN(C(=O)OCCF)C1` (single isomer, unassigned) [Example 32, 2-fluoroethyl 3-methyl-3-(4-(2-oxo-2,3-dihydro-1H-benzo[d]imidazol-1-yl)piperidin-1-yl)pyrrolidine-1-carboxylate], 33700 nM.
`CC#CCOC(=O)N1CCC(C)(N2CCC(n3c(=O)[nH]c4ccccc43)CC2)C1` (single isomer, unassigned) [Example 33, but-2-ynyl 3-methyl-3-(4-(2-oxo-2,3-dihydro-1H-benzo[d]imidazol-1-yl)piperidin-1-yl)pyrrolidine-1-carboxylate]: the EC50 is 316 nM.
As for `CC#CCOC(=O)N1CCC(C)(N2CCC(n3c(=O)[nH]c4ccccc43)CC2)C1` (single isomer, unassigned) [Example 34, but-2-ynyl 3-methyl-3-(4-(2-oxo-2,3-dihydro-1H-benzo[d]imidazol-1-yl)piperidin-1-yl)pyrrolidine-1-carboxylate], the figure is 1670 nM.
Turning to `C#CCOC(=O)N1CCC(C)(N2CCC(n3c(=O)[nH]c4cc(F)ccc43)CC2)C1` (single isomer, unassigned) [Example 36, prop-2-ynyl 3-(4-(5-fluoro-2-oxo-2,3-dihydro-1H-benzo[d]imidazol-1-yl)piperidin-1-yl)-3-methylpyrrolidine-1-carboxylate], the 50% effective concentration (EC50) came out at 6830 nM.
In the case of `Cc1ccc2[nH]c(=O)n(C3CCN(C4(C)CCN(C(=O)OC(C)C)C4)CC3)c2c1` (single isomer, unassigned) [Example 39, isopropyl 3-methyl-3-(4-(6-methyl-2-oxo-2,3-dihydro-1H-benzo[d]imidazol-1-yl)piperidin-1-yl)pyrrolidine-1-carboxylate] it was above 90000 nM; in that of `Cc1ccc2[nH]c(=O)n(C3CCN(C4(C)CCN(C(=O)OC(C)C)C4)CC3)c2c1` (single isomer, unassigned) [Example 40, isopropyl 3-methyl-3-(4-(6-methyl-2-oxo-2,3-dihydro-1H-benzo[d]imidazol-1-yl)piperidin-1-yl)pyrrolidine-1-carboxylate], above 22300 nM; in that of `C#CCOC(=O)N1CCC(C)(N2CCC(n3c(=O)[nH]c4cc(C)ccc43)CC2)C1` (single isomer, unassigned) [Example 44, prop-2-ynyl 3-methyl-3-(4-(5-methyl-2-oxo-2,3-dihydro-1H-benzo[d]imidazol-1-yl)piperidin-1-yl)pyrrolidine-1-carboxylate], 107 nM.
In the case of `COC(=O)N1CCC(C)(N2CCC(n3c(=O)[nH]c4ccc(C)cc43)CC2)C1` (single isomer, unassigned) [Example 47, methyl 3-methyl-3-(4-(6-methyl-2-oxo-2,3-dihydro-1H-benzo[d]imidazol-1-yl)piperidin-1-yl)pyrrolidine-1-carboxylate] it was 907 nM; in that of `CCOC(=O)N1CCC(C)(N2CCC(N3C(=O)Cc4ccc(C)cc43)CC2)C1` (single isomer, unassigned) [Example 70, ethyl 3-methyl-3-(4-(6-methyl-2-oxoindolin-1-yl)piperidin-1-yl)pyrrolidine-1-carboxylate], 1770 nM; in that of `COC(=O)N1CCC(C)(N2CCC(N3C(=O)Cc4ccc(F)cc43)CC2)C1` (single isomer, unassigned) [Example 76, methyl 3-(4-(6-fluoro-2-oxoindolin-1-yl)piperidin-1-yl)-3-methylpyrrolidine-1-carboxylate], above 90000 nM.
In the case of `CCOC(=O)N1CCC(C)(N2CCC(N3C(=O)Cc4cc(F)ccc43)CC2)C1` (single isomer, unassigned) [Example 80, ethyl 3-(4-(5-fluoro-2-oxoindolin-1-yl)piperidin-1-yl)-3-methylpyrrolidine-1-carboxylate] it was above 21800 nM; in that of `CCOC(=O)N1CCC(C)(N2CCC(N3C(=O)Cc4cc(F)c(C)cc43)CC2)C1` (single isomer, unassigned) [Example 82, ethyl 3-(4-(5-fluoro-6-methyl-2-oxoindolin-1-yl)piperidin-1-yl)-3-methylpyrrolidine-1-carboxylate], 937 nM.
